Target: T1, Af-EGL7 (Aspergillus fumigatus, UniProt Q4WCM9)
T1 construct: gene AFUA_6G01800; ORF without predicted signal peptide in pPICZalphaA, alpha-factor secretion signal, C-terminal vector tag with His6 kept, from Pichia pastoris X-33, N-glycosylated, about 70 kDa on SDS-PAGE; forward primer encodes EF-QQPAA at N-terminus
T1 sequence (Q4WCM9 21-460): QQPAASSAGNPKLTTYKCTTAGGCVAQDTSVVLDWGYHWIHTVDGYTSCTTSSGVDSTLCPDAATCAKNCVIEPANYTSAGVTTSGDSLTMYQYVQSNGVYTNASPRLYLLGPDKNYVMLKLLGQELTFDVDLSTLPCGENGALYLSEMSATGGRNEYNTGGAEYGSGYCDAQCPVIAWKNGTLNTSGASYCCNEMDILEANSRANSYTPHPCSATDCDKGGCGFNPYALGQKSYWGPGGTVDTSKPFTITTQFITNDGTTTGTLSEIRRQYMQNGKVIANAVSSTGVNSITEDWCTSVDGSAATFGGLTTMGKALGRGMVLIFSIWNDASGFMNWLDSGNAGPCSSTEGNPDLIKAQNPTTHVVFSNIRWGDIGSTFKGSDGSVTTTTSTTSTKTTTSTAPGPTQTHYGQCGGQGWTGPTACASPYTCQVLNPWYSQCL
Experiment: colorimetric, Azo-Xyloglucan hydrolysis, […] nm
Format: biochemical
Details: read-out: % inhibition at 50 mM

OC[C@H]1O[C@@H](O[C@H]2[C@H](O)[C@@H](O)C(O)O[C@@H]2CO)[C@H](O)[C@@H](O)[C@@H]1O (stereo partly shown) [cellobiose] was tested, and the inhibition at 50000 µM was 35%.
